Data taken from publication PMC6293271, “Bactericidal/Permeability-Increasing Protein Is an Enhancer of Bacterial Lipoprotein Recognition” (Frontiers in Immunology, 2018).
Ends that are not written are not given here. * marks the point of attachment. Palmitoyl = CCCCCCCCCCCCCCCC(=O)*

Legend:
[1] = target: T1, BPIN(A) (Homo sapiens, UniProt P17213); experiment: MicroScale Thermophoresis (MST) binding assay with neutrophil BPI; settings: 25°C
T1 construct: Bactericidal/permeability-increasing protein (BPI) extracted from neutrophils; purchased Athens Research and Technology; host or cells: neutrophils
T1 sequence (P17213 32-487): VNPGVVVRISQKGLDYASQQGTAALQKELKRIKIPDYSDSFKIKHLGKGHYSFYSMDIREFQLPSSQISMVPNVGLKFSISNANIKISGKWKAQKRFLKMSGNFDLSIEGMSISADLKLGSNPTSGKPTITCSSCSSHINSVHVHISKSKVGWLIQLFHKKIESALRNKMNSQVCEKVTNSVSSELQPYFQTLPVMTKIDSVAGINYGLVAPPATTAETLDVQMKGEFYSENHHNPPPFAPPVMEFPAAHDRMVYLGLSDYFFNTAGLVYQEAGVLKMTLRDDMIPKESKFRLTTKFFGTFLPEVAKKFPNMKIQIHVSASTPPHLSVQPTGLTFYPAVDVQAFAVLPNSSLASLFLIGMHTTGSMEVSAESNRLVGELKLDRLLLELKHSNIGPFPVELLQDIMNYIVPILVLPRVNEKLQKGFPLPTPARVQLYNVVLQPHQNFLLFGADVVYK
Experimental: BPIN(A) and rBPI were labeled with NT647 in PBS pH 7.4 (Monolith NT™ Protein Labeling Kit RED—NHS, NanoTemper Technologies, Munich, Germany). Concentration of labeled protein was determined using the NanoDrop (ThermoScientific, Wilmington, NC, USA) and Bradford assay (Promega, Mannheim, Germany). MicroScale Thermophoresis (MST) binding experiments were carried out with 5 nM labeled protein in binding buffer (10 mM HEPES pH 7.4, 150 mM NaCl, 0.1% Tween) with 0.05–1,679 nM of LPS EC or 0.196–6,436 nM of Pam3CSK4 or 0.61–20,000 nM of LTA SAΔlgt and LTA SPΔlgt or of >0.61–20,000 nM WTA SPΔlgt at 20–40% MST power, 20% LED power in premium capillaries on a Monolith NT.115 pico device at 25°C (NanoTemper Technologies, Munich, Germany). For MST binding assays based on Pam3CSK4 Fluorescein, 20 nM of the fluorescent molecule in binding buffer (10 mM HEPES pH 7.4, 150 mM NaCl, 0.1% Tween) was supplied with 0.018–600 nM BPIN(A) and measured at 40% MST power, 10% LED power in premium capillaries on a Monolith NT.115 pico device at 25°C (NanoTemper Technologies, Munich, Germany).
MST timetraces were recorded and the temperature jump or, respectively, thermophoresis was analyzed. The recorded fluorescence was plotted against the ligand concentration and curve fitting was performed with KaleidaGraph 4.5 using the dissocation constant (KD) fit formula derived from the law of mass action. […]

[2] = system: T2, rBPI; experiment: BPI microtiter binding assay, LPS biotin-coated plates; design: species or system human; settings: ligand pre-incubated with 20 nM rBPI
T2 construct: the human BPI (aa 32-487) and a C-terminal FLAG Tag; HA signal peptide (N); made in house; host or cells: HEK293T
Experimental: BPI binding assays were performed using a protocol published for LBP ([9]) with some modifications. Streptavidin-coated 96-well plates (Nunc^TM Immobilizer^TM Streptavidin F96 clear, Thermo Fisher Scientific, Waltham, MA, USA) were coated with LPS biotin (2 μg/ml) or Pam2CSK4 biotin (1 μg/ml) in PBS overnight at 23°C with gentle agitation. After washing with assay buffer (150 mM NaCl, 50 mM HEPES, Sigma Aldrich, Taufkirchen, Germany) containing 0.01% Casein, plates were blocked with 10 g/l BSA (Sigma Aldrich, Taufkirchen, Germany) at 37°C and washed again. Thereafter, ligands were preincubated with 20 nM BPI in assay buffer containing 1 g/l BSA for 30 min and loaded onto the plates. In case of bacterial lysates, 0.05% Tween 20 was added for preincubation. After incubation for 1 h at 37°C, three washing steps were performed. Bound BPI was detected by murine anti-human BPI monoclonal antibody (Cat.-No. HM2042, Hycult Biotech, Uden, Netherlands) and HRP-conjugated rabbit anti-mouse IgG (Cat.-No. 315-035-048, Dianova, Hamburg, Germany). TMB (BD OptEIA^TM TMB Substrate Reagent Set, BD Biosciences, Heidelberg, Germany) was used as a substrate for peroxidase. After addition of 1 N HCl, absorbance was measured at 450 nm. Technical replicates were performed at least two times using exactly the same reagents and are not indicated for the BPI microtiter binding assay. Biological replicates shown here are experiments independently performed by using separately formulated solutions of the reagents.

[3] = system: TLR2; design: method as in PMID 15193414; settings: cited from earlier work
[4] = system: T2, rBPI; experiment: NanoDSF thermal stability of rBPI with ligand; type: binding, human; settings: 5 μM rBPI, 30 μM ligand, PBS pH 7.4
Experimental: For thermal unfolding experiments, rBPI protein was diluted to a final concentration of 5 μM in PBS pH 7.4, either containing a ligand at 30 μM concentration [(R)-Pam3CSK4, (R)-FSL-1 or LPS EC] or in the absence of a ligand. For each condition, 10 μl of sample per capillary were prepared. The samples were loaded into UV capillaries and experiments were carried out using the Prometheus NT.48 (NanoTemper Technologies, Munich, Germany). The temperature gradient was set to an increase of 1°C/min with a range from 20 to 90°C. Protein unfolding was measured by detecting the temperature-dependent change in tryptophan fluorescence at emission wavelength of 350 nm (Figure 3E, upper panel). Melting temperature (Tm) was determined by detecting the maximum of the first derivative of the fluorescence wavelength 350 nm. For this purpose, an 8th order polynomial fit was calculated for the transition region (Figure 3E, lower panel). Next, the first derivative of the fit was formed and the peak position (at Tm) was determined. Finally, Tm shift (Tm protein alone — Tm protein with ligand) upon addition of ligand to the protein (in°C) was calculated. Technical and biological replicates were defined as described for BPI microtiter binding assays.

| Compound | inhibition of binding of rBPI to LPS biotin-coated wells [2] | TLR2-stimulatory potential [3] | further results |
| --- | --- | --- | --- |
| Pam3CSK4 Fluorescein: Pam3CSK4, covalently labeled with fluorescein (CSKKKK) | – | – | Kd ([1]; 20 nM Pam3CSK4 Fluorescein incubated with increasing concentrations of unlabeled BPIN(A)): 20.3 nM |
| Pam 2^* CSK4: di-acylated lipopeptide; acyl-chain deleted at the O-2-position of the thioglycerol core (CSKKKK; also: di-acylated lipopeptide, acyl chain deleted at O-2 of thioglycerol core) | lower inhibitory potential | lack TLR2-stimulatory potential | – |
| (R)-Pam2CSK4: di-acylated lipopeptide; acyl-chain deleted at the amino-terminal cysteine of the residual peptide (CSKKKK; di-acylated: diacyl-thioglycerol motif on the cysteine; no acyl-chain at the amino-terminal cysteine of the residual peptide) | lower inhibitory potential | – | change in melting temperature (Tm) of rBPI [4]: decrease in Tm |
| CCCCCCCCCCCCCCCC(=O)OCC(CO)OC(=O)CCCCCCCCCCCCCCC (stereo not shown) [DAG, Diacyl-glycerol 16:0] | no inhibitory binding | – | – |
| Pam3CSK4: tri-acylated lipopeptide; racemate of (R)-Pam3CSK4 and (S)-Pam3CSK4 (Palmitoyl-CSKKKK; not fully specified (residue 1); also: racemate of (R) and (S) forms at the glycerol centre) | inhibited binding of rBPI to LPS in a dose-dependent manner | – | Kd ([1]; BPIN(A) NT647 (5 nM) incubated with increasing concentrations of ligand): 66.7 nM |
| PamCSK4: mono-acylated lipopeptide; glycerol-core with two fatty acids deleted, peptide with only one fatty acid (Palmitoyl-CSKKKK) | not enough to completely block the inhibitory potential | lack TLR2-stimulatory potential | – |
